Results as given in PMC10823514, “Target Identification of a Class of Pyrazolone Protein Aggregation Inhibitor Therapeutics for Amyotrophic Lateral Sclerosis” (ACS Central Science, 2023).

Columns and labels:
Assay type in all cases: binding
14-3-3-E = biological target: T1, 14-3-3-E (Homo sapiens, UniProt P62258); test: Fluorescent thermal shift assay (FTSA) with 14-3-3-E; settings: for Tm shift (ΔTm): SYPRO orange
T1 construct: His-tag (TEV-cleavable) (cleaved yes); host or cells: E. coli (BL21)
T1 sequence (P62258 1-255): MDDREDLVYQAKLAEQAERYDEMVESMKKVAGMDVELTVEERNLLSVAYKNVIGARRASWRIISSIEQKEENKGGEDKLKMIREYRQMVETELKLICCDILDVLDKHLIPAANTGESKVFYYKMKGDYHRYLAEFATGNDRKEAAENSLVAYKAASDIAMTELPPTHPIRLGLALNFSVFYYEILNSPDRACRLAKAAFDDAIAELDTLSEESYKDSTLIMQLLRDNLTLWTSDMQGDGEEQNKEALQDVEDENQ
Protocol: His-tagged 14-3-3-E, B, and H plasmids were purchased from Addgene (plasmid ID# 31562, 39128, and 38814, respectively). E. coli (BL21) were transformed with extracted plasmids via heat shock and plated on selected media. Individual colonies were selected, grown, and sequenced to confirm gene presence. 1 L cultures were grown to an OD600 of 0.6 at 37 °C and 220 rpm. Protein expression was induced with 1 mM IPTG and expressed for 12 h at 100 rpm and room temperature (approximately 25 °C). Cells were spun down at 4000 rpm for 15 min at 4 °C and resuspended in lysis buffer containing 50 mM Tris (7.4), 150 mM NaCl, 0.08% DDM, 5 mM imidazole, and 5% glycerol (with an EDTA-free complete mini protease inhibitor cocktail). Cells were lysed via sonication, and the lysate was separated from cell debris by centrifugation at 15,000 rpm, 4 °C, for 45 min. The His-tagged protein was purified using QIAGEN Ni-NTA superflow columns, and the His-tag was removed with TEV protease. His-tag-removed proteins were further purified by size exclusion chromatography. His tag removal and size exclusion chromatography purification were done at the Northwestern University Protein Production core. 14-3-3-Q and 14-3-3-G proteins were purchased from Abchem (catalog numbers ab85270 and ab53869, respectively).
All of the FTSA experiments were conducted in HEPES buffer (60 mM HEPES, 150 mM NaCl, pH 7.4). A DMSO balanced 8-point dilution series of the compound in HEPES buffer was prepared in a 96-well assay plate (200, 100, 50, 25, 12.5, 6.25, 3.125, and 0 μM). Then, a 5 μL volume of the dilution series was transferred to a 384-well PCR plate using a multichannel pipet, and the plate was centrifuged at 1000 rpm for 2 min (the plate was covered with an adhesive aluminum seal). The protein sample was premixed at a concentration of 0.04 μg/μL with a 5X concentration of SYPRO orange in HEPES buffer, and a 5 μL aliquot was added to the compound wells. The plate was covered with an optical adhesive seal and was shaken for 2 min, followed by centrifugation at 1000 rpm for 2 min. The thermal scan was performed from 20 to 90 °C with a temperature gradient of 0.5 °C/min. The fluorescence was measured on a Bio-Rad CFX384 real-time PCR instrument.

[1] = biological target: T2, 25 kDa protein band in PC12 SOD1^G93A cells (Rattus norvegicus, UniProt P62260); test: Live-cell photoaffinity labeling: concentration-dependent covalent modification of the 25 kDa band by PRAPP (in-gel fluorescence, Hill fit); settings: all three treatment scenarios
T2 construct: we identified a 25 kDa covalently modified protein band in the PC12 SOD1^G93A cell line; endogenous in cells; host or cells: PC12-SOD1^G93A cells (live-cell UV photolabeling, then lysis)
T2 sequence (P62260 1-255): T1 sequence (P62258 1-255)
Protocol: PC12-SOD1^G93A cells were cultured and grown to 90% confluency (in 6-well plates) and washed once with PBS followed by the addition of serum medium containing the appropriate analyte at the indicated concentrations. Three incubation scenarios were studied (at 37 °C): Scenario 1) 12 h preincubation with PRAPP in the absence of MG-132; Scenario 2) 12 h preincubation with PRAPP in the absence of MG-132 followed by an additional 24 h incubation (control); and Scenario 3) 12 h preincubation with PRAPP followed by the addition of MG-132 (100 nM) and an additional 24 h incubation. After incubation, the medium was discarded and cells were washed with PBS (1 × 300 μL). […] Each lysate was centrifuged at 4 °C for 5 min at 13,000 rpm, and the resulting supernatant was concentrated with a centrifugal filter (Amicon Ultra Centrifugal Filters 3K cutoff, Millipore), normalized to 1.0 mg/mL by the Bradford assay, and analyzed immediately or stored at −80 °C for subsequent analysis.
In a darkened (wrapped with aluminum foil) Eppendorf tube, each lysate (30 μL [30 μg]) was incubated with 10 μL of the freshly prepared “click” premix containing CuSO4 (5 mM), sodium ascorbate (5 mM), TBTA (200 μM), and N3–Alexa-647 (50 μM) were added to PBS (50 mM, pH 7.4). […] In-gel fluorescence was monitored (excitation λ = 635 nm; emission λ = 670 nm) using a Typhoon 9400 (GE Healthcare) fluorimager. […]

[2] = tested on: 25 kDa covalently modified band in HAP1 cells; test: Photoaffinity labeling with HAP1 wild-type and Hsp27 knockout cells; settings: 15 μM PRAPP
Source text: First, we conducted photoaffinity labeling studies with wild-type (WT) HAP1 cells to verify the existence of the 25 kDa covalent modification that we observed in PC12 cells.
Figure 7 Photoaffinity Labeling Experiments with HAP1 cells. […] The nonspecific background modifications remain unchanged with increasing concentration of P3, further confirming the 25 kDa covalently modified band as a true target; (B) comparison of the photoaffinity labeling experiments with HAP1 wild-type (WT) cells and Hsp27 knockout (KO) cells at 15 μM PRAPP concentration.

concentration of saturation binding kinetics [1]	SMILES	Tm shift (ΔTm) (14-3-3-E)	Kd (14-3-3-E; fit of ΔTm versus concentration, n = 2, read-out: Kd^app)	intensity of the 25 kDa covalently modified band in Hsp27 KO versus WT cells [2]
–	O=c1cc(COc2cc(Cl)cc(Cl)c2)[nH][nH]1 [P2]	3.2 °C	2850 nM	–
around 30 μM	C#CCN(Cc1cc(=O)[nH][nH]1)Cc1c(F)c(F)c(N=[N+]=[N-])c(F)c1F [PRAPP, 5-(((4-Azido-2,3,5,6-tetrafluorobenzyl)(prop-2-yn-1-yl)amino)methyl)-1,2-dihydro-3H-pyrazol-3-one]	2.5 °C	–	remains unchanged
